Literature values in patent US20070098786A1, “ENTERIC VALPROIC ACID” (Banner Pharmacaps, Inc., priority 2005, published 2007).

Structure (SMILES): CCCC(CCC)C(=O)O [Divalproex sodium]
- solubility in water: soluble in water
